Source: ChEMBL document CHEMBL4152366, “Design, synthesis, and biological evaluation of novel selective peptide inhibitors of 11β-hydroxysteroid dehydrogenase 1” (Bioorg Med Chem, 2018)

How the values were obtained:
[1] = molecular target: T1, 11-beta-hydroxysteroid dehydrogenase 1 (Homo sapiens, UniProt P28845); experiment: Inhibition of human 11beta-HSD1 expressed in HEK293 cell lysates using radiolabeled cortisone as substrate incubated for 10 mins by scintillation counting method
Target sequence in this assay (P28845 whole entry): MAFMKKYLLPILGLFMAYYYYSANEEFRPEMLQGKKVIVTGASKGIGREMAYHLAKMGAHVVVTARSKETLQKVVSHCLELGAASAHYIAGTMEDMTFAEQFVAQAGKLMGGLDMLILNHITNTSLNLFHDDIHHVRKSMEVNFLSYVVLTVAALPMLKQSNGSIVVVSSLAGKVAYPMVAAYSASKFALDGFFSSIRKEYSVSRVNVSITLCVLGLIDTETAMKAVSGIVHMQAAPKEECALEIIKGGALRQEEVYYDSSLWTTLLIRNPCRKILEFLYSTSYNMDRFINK

[2] = molecular target: T1, 11-beta-hydroxysteroid dehydrogenase 1; experiment: Inhibition of 11beta-HSD1 in human primary keratinocytes assessed as reduction in conversion of […] incubated for 48 hrs by enzyme immunoassay; assay type: cell-based
Target sequence in this assay (P28845 whole entry, looked up): as the sequence (P28845 whole entry) above

[3] = molecular target: T1, 11-beta-hydroxysteroid dehydrogenase 1; experiment: Inhibition of 11beta-HSD1 in human skin assessed as reversal of cortisone-mediated decrease in dermal total collagen content at 200 uM by picrosirius red histochemical staining based assay
Target sequence in this assay (P28845 whole entry, looked up): as the sequence (P28845 whole entry) above

[4] = molecular target: T1, 11-beta-hydroxysteroid dehydrogenase 1; experiment: Inhibition of 11beta-HSD1 in human skin assessed as reversal of cortisone-mediated decrease in dermal total collagen content at 10 to 100 uM by picrosirius red histochemical staining based assay
Target sequence in this assay (P28845 whole entry, looked up): as the sequence (P28845 whole entry) above

[5] = molecular target: T1, 11-beta-hydroxysteroid dehydrogenase 1; experiment: Inhibition of 11beta-HSD1 in human skin assessed as reversal of cortisone-mediated decrease in dermal total collagen content by picrosirius red histochemical staining based assay
Target sequence in this assay (P28845 whole entry, looked up): as the sequence (P28845 whole entry) above

[6] = molecular target: T2, 17-beta-hydroxysteroid dehydrogenase type 1 (Homo sapiens) (UniProt P14061); experiment: Inhibition of human 17beta-HSD1 expressed in HEK293 cell lysates assessed as remaining enzyme activity at 1 uM using radiolabeled estrone as substrate incubated for 10 mins by scintillation counting method relative to control; values are per cent of control
T2 sequence (whole entry): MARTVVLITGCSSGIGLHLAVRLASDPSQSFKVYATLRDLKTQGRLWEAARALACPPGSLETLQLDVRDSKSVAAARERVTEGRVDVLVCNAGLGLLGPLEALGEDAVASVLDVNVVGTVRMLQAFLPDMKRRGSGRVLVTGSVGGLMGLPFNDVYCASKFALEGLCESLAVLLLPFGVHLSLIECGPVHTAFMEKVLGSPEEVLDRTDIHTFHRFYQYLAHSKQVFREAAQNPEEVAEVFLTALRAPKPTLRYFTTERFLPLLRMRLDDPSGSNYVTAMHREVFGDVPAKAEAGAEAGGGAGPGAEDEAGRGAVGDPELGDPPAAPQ

[7] = molecular target: T3, 17-beta-hydroxysteroid dehydrogenase type 2 (Homo sapiens) (UniProt P37059); experiment: Inhibition of human 17beta-HSD2 expressed in HEK293 cell lysates assessed as remaining enzyme activity at 1 uM using radiolabeled estradiol as substrate incubated for 10 mins by scintillation counting method relative to control; values are per cent of control
T3 sequence (whole entry): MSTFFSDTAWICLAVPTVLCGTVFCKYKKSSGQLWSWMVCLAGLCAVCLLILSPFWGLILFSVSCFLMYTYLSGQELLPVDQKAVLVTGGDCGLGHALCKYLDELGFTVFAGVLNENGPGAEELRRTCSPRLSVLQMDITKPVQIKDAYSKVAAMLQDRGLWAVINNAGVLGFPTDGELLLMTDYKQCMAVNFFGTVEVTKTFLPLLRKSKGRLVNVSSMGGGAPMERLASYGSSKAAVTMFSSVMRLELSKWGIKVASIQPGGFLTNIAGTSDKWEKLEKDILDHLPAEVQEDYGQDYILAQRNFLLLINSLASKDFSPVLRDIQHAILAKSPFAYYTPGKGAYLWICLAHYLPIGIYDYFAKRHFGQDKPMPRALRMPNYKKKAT

[8] = molecular target: T4, 11-beta-hydroxysteroid dehydrogenase type 2 (Homo sapiens) (UniProt P80365); experiment: Inhibition of human 11beta-HSD2 expressed in HEK293 cell lysates assessed as remaining enzyme activity at 1 uM using radiolabeled cortisol as substrate incubated for 10 mins in presence of NAD+ by scintillation counting method relative to control; values are per cent of control
T4 sequence (whole entry): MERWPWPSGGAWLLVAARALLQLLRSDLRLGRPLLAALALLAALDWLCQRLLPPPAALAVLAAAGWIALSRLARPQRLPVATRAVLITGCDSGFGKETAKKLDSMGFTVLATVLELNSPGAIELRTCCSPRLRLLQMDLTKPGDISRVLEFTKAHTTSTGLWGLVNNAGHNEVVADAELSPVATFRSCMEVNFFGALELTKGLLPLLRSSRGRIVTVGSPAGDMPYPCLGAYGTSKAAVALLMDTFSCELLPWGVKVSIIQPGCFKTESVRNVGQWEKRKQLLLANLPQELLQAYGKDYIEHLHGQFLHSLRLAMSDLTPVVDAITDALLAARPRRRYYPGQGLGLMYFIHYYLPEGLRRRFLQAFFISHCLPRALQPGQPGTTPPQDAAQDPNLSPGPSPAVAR

IC50 [1] [nM]	inhibition [2]	inhibition [3] [%]	inhibition [4] [%]	inhibition [5]	residual activity [6] [%]	residual activity [7] [%]	residual activity [8] [%]	SMILES
197	Dose-dependent effect	100	18	Dose-dependent effect	> 90	> 90	> 90	CC(=O)N[C@@H](Cc1ccc(C#N)cc1)C(=O)N1CCC[C@@H]1C(=O)NC1C2CC3CC(C2)CC1C3 (stereo partly drawn)
266	Dose-dependent effect	–	–	–	> 90	> 90	> 90	CC(=O)N[C@@H](Cc1ccc(F)cc1)C(=O)N1CCC[C@@H]1C(=O)NC1C2CC3CC(C2)CC1C3 (stereo partly drawn)
373	Dose-dependent effect	–	–	–	> 90	> 90	> 90	CCOc1ccc(C[C@H](N)C(=O)N2CCC[C@@H]2C(=O)NC2C3CC4CC(C3)CC2C4)cc1 (stereo partly drawn)
